This note sets out measurements from ChEMBL document CHEMBL1144165, “Cyclic diarylheptanoids from Myrica nana inhibiting nitric oxide release” (Bioorg Med Chem, 2008).

In assay [1] the test system is Macrophage. The assay can be described thus: Inhibition of LPS-stimulated nitric oxide production in BALB/c mouse macrophages at 1 uM after 20 hrs by Griess assay relative to control. Type of assay: functional. On the technique in general: The Griess reaction detects nitrite, a stable product of nitric oxide.
For assay [2], the system named is Macrophage. Put plainly: Inhibition of LPS-stimulated nitric oxide production in BALB/c mouse macrophages at 30 uM after 20 hrs by Griess assay relative to control. The assay is classed as functional.
In assay [3] the test system is Macrophage. Put plainly: Inhibition of LPS-stimulated nitric oxide production in BALB/c mouse macrophages at 3 uM after 20 hrs by Griess assay relative to control. Type of assay: functional.
For assay [4], the system named is Macrophage. Put plainly: Inhibition of LPS-stimulated nitric oxide production in BALB/c mouse macrophages after 20 hrs by Griess assay relative to control. The assay is classed as functional, cell-based.
In assay [5] the test system is Macrophage. Put plainly: Inhibition of LPS-stimulated nitric oxide production in BALB/c mouse macrophages at 100 uM after 20 hrs by Griess assay relative to control. The assay is classed as functional.
For assay [6], the system named is Macrophage. The assay can be described thus: Inhibition of LPS-stimulated nitric oxide production in BALB/c mouse macrophages at 10 uM after 20 hrs by Griess assay relative to control. The assay is classed as functional.
Assay [7] has as its system Macrophage. The assay can be described thus: Inhibition of iNOS expression in LPS-activated BALB/c mouse macrophages at 1 to 100 uM after 12 hrs by SDS-PAGE. Type of assay: functional, cell-based.

pIC50: −log10 of the molar value. Active and inactive are the calls of the source. The calls are words filed in the database; no cut-off is given here.

Broadly, the inhibition is the drop in the measured response relative to a control, in per cent. For orientation: pIC50 means −log10 of the IC50, conventionally taken in molar units. A low value points to a large IC50. As to `O=C1CCc2ccc(O)c(c2)-c2cc(ccc2O)CCC(O)C1` (stereo unspecified) [ALNUSONOL], in assay [1], the inhibition at 1 µM is -3.39%. Moreover, in assay [2], the inhibition at 30 µM amounted to 41.1%. Also, the inhibition at 3 µM in assay [3] was found to be 34.8%. Besides, the pIC50 in assay [4] is 4.34. Further, the inhibition at 100 µM in assay [5] turned out to be 54.5%. Further, the inhibition at 10 µM in assay [6] amounted to 45.8%.
Regarding `COc1c2cc(c(O)c1OC)CCCCC(=O)C(OC)Cc1cc(O)c(O)c-2c1` (stereo unspecified) [MYRICANANIN E], in assay [1], the inhibition at 1 µM is -3.27%. The inhibition at 30 µM in assay [2] came to 29.8%. Also, the inhibition at 3 µM in assay [3] worked out at 9.22%. Also, the inhibition at 100 µM in assay [5] came to 49.2%. Also, the inhibition at 10 µM in assay [6] amounted to 15.3%.
`COc1c2cc(c(O)c1OC)CCCC[C@@H]1OC(C)(C)O[C@H]1Cc1ccc(O)c-2c1` [MYRICANANIN B]: the inhibition at 1 µM in assay [1] was determined as 17.3%. In assay [2], the inhibition at 30 µM came out at 49.7%. For the same molecule, the inhibition at 3 µM in assay [3] is 32.8%. This molecule had a pIC50 in assay [4] of 4.28. Further, the inhibition at 100 µM in assay [5] was 55.8%. The inhibition at 10 µM in assay [6] was 39.2%.
With `COc1c2cc(c(O)c1OC)CCCCC(=O)/C=C\c1cc(O)c(O)c-2c1` [MYRICANANIN D], the inhibition at 1 µM in assay [1] was determined as 6.12%. In addition, the inhibition at 30 µM in assay [2] was determined as 19.1%. The inhibition at 3 µM in assay [3] turned out to be 17.7%. The inhibition at 100 µM in assay [5] was 31.8%. In assay [6], the inhibition at 10 µM was 23.8%.
Consider `COC1=C(OC)C(=O)C2=C(CCCCC(O)CCc3ccc(O)c2c3)C1=O` (stereo unspecified) [ACTINIDIONE], for which the inhibition at 1 µM in assay [1] stood at 9.52%. The inhibition at 30 µM in assay [2] was 31.4%. The inhibition at 3 µM in assay [3] amounted to 21.1%. In addition, the inhibition at 100 µM in assay [5] stood at 38.7%. Moreover, the inhibition at 10 µM in assay [6] worked out at 22.9%.
Turning to `COc1c2cc(c(O)c1OC)CCCCC(=O)C(O)Cc1ccc(O)c-2c1` (stereo unspecified), the inhibition at 1 µM in assay [1] was determined as 35.1%. Besides, the inhibition at 30 µM in assay [2] came to 55.7%. For the same molecule, in assay [3], the inhibition at 3 µM came to 48.7%. Also, the pIC50 in assay [4] is 4.52. Moreover, in assay [5], the inhibition at 100 µM was determined as 65.5%. The inhibition at 10 µM in assay [6] worked out at 41.8%.
Take `COc1cc2cc(c1O)-c1cc(ccc1O)CCC(=O)CCCC2` [MYRICANANIN C]: in assay [1], the inhibition at 1 µM is 17.3%. Besides, the inhibition at 30 µM in assay [2] came out at 42.6%. In assay [3], the inhibition at 3 µM was found to be 32.8%. Moreover, in assay [4], the pIC50 was 4.20. Besides, the inhibition at 100 µM in assay [5] turned out to be 50.1%. For the same molecule, in assay [6], the inhibition at 10 µM amounted to 39.1%.
`COc1cc2cc(c1O)-c1cc(ccc1O)C[C@H](O)[C@@H](O)CCCC2` [MYRICANANIN A]: in assay [1], the inhibition at 1 µM was found to be 0.84%. The inhibition at 30 µM in assay [2] worked out at 50.8%. The result in assay [7] was Active. Besides, the inhibition at 3 µM in assay [3] is -0.13%. The pIC50 in assay [4] is 4.34. Also, in assay [5], the inhibition at 100 µM worked out at 84.4%. In addition, the inhibition at 10 µM in assay [6] is 36%.
